# Measured values published in patent US9765092B2, “Tricyclic piperidine compounds” (ACTELION PHARMACEUTICALS LTD, priority 2013, dated 2017).
# Biological target: human TPH1 (Homo sapiens (Human), UniProt P17752)
# Assay: Biochemical in vitro assay using fluorescence readout (TPH1 inhibition)
# Conditions: full length human TPH1, 40 μM L-tryptophan, 15° C., 60 minutes, fluorescence at 540 nm; mean if determined several times
# Sequence of human TPH1 (P17752 whole entry): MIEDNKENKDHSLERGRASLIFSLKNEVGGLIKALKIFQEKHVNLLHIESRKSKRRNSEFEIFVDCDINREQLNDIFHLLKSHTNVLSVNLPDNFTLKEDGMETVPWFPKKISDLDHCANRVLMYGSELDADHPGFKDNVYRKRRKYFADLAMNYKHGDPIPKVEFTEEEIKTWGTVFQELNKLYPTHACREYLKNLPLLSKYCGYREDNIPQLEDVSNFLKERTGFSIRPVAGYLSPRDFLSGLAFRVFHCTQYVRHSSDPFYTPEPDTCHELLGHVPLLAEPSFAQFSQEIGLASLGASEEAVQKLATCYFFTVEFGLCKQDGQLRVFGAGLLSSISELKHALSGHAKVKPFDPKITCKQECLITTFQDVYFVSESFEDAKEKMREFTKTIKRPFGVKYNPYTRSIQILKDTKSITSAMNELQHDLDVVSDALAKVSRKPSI
row,Structure (SMILES),IC50 [nM]
1,"Cc1nn2c3c(nc2s1)CCN(C(=O)COc1ccc(N2CCOCC2)nc1Cl)C3c1ccc(C(=O)N(C)C)o1 (stereo not shown) [Example 1.40.2, 5-(6-(2-((2-Chloro-6-morpholinopyridin-3-yl)oxy)acetyl)-2-methyl-5,6,7,8-tetrahydro-[1,3,4]thiadiazolo[2′,3′:2,3]imidazo[4,5-c]pyridin-5-yl)-N,N-dimethylfuran-2-carboxamide]",12
2,"CCNc1nn(C)c(C2c3c(nc4sc(C)nn34)CCN2C(=O)COc2ccc(N3CCOCC3)nc2Cl)c1C (stereo not shown) [Example 1.51.1, 2-((2-Chloro-6-morpholinopyridin-3-yl)oxy)-1-(5-(3-(ethylamino)-1,4-dimethyl-1H-pyrazol-5-yl)-2-methyl-7,8-dihydro-[1,3,4]thiadiazolo[2′,3′:2,3]imidazo[4,5-c]pyridin-6(5H)-yl)ethanone]",58

# Same assay, conditions: human TPH1, fluorescence readout
row,Structure (SMILES),IC50 [nM]
1,"CNC(=O)c1cc(F)c(C2c3c(nc4sc(C)nn34)CCN2C(=O)COc2ccc(C(F)(F)F)nc2Cl)s1 (stereo not shown) [Example 1.25.3, 5-(6-(2-((2-chloro-6-(trifluoromethyl)pyridin-3-yl)oxy)acetyl)-2-methyl-5,6,7,8-tetrahydro-[1,3,4]thiadiazolo [2′,3′:2,3]imidazo[4,5-c]pyridin-5-yl)-4-fluoro-N-methylthiophene-2-carboxamide]",35
2,"CCc1nc(C)ccc1OCC(=O)N1CCc2nc3sccn3c2C1c1ccc(C(F)(F)F)cc1F (stereo not shown) [Example 6.11.1, 2-((2-ethyl-6-methylpyridin-3-yl)oxy)-1-(5-(2-fluoro-4-(trifluoromethyl)phenyl)-7,8-dihydrothiazolo-[2′,3′:2,3]imidazo[4,5-c]pyridin-6(5H)-yl)ethanone]",10
3,"CNC(=O)c1ccc(OCC(=O)N2CCc3nc4sc(C)nn4c3C2c2ncccc2F)c(Cl)n1 (stereo not shown) [Example 1.35.3, 6-chloro-5-(2-(5-(3-fluoropyridin-2-yl)-2-methyl-7,8-dihydro-[1,3,4]thiadiazolo[2′,3′:2,3]imidazo[4,5-c]pyridin-6(5H)-yl)-2-oxoethoxy)-N-methylpicolinamide]",29
4,"COc1ccc(C2c3c(nc4sccn34)CCN2C(=O)COc2ccc(CN3CCOCC3)nc2Cl)c(F)c1 (stereo not shown) [Example 6.3.2, 2-((2-chloro-6-(morpholinomethyl)pyridin-3-yl)oxy)-1-(5-(2-fluoro-4-methoxyphenyl)-7,8-dihydrothiazolo-[2′,3′:2,3]imidazo[4,5-c]pyridin-6(5H)-yl)ethanone]",9
5,"CCn1nc(C(=O)N(C)C)cc1OCC(=O)N1CCc2nc3sc(C)nn3c2C1c1sccc1F (stereo not shown) [Example 1.23.13, 1-ethyl-5-(2-(5-(3-fluorothiophen-2-yl)-2-methyl-7,8-dihydro-[1,3,4]thiadiazolo[2′,3′:2,3]imidazo[4,5-c]pyridin-6(5H)-yl)-2-oxoethoxy)-N,N-dimethyl-1H-pyrazole-3-carboxamide]",103
6,"COc1ccc2c(OCC(=O)N3CCc4nc5sc(C)nn5c4C3c3ccc(Cl)cc3F)cc(C)nc2c1 (stereo not shown) [Example 1.4.63, 1-(5-(4-chloro-2-fluorophenyl)-2-methyl-7,8-dihydro-[1,3,4]thiadiazolo[2′,3′:2,3]imidazo[4,5-c]pyridin-6(5H)-yl)-2-((7-methoxy-2-methylquinolin-4-yl)oxy)ethan-1-one]",65
7,"Cc1nn2c3c(nc2s1)CCN(C(=O)COc1ccc(N(C)CC(F)(F)F)nc1Cl)C3c1cc(CN(C)C)cs1 (stereo not shown) [Example 1.8.5, 2-((2-chloro-6-(methyl(2,2,2-trifluoroethyl)amino)pyridine-3-yl)oxy)-1-(5-(4-((dimethylamino)methyl)thiophen-2-yl)-2-methyl-7,8-dihydro-[1,3,4]thiadiazolo[2′,3′:2,3]imidazo[4,5-c]pyridin-6(5H)-yl)ethanone]",25
8,"COC(=O)c1ccc(OCC(=O)N2CCc3nc4sc(C)nn4c3C2c2ccc(C3CC3)cc2F)c(Cl)n1 (stereo not shown) [Example 1.6.21, Methyl 6-chloro-5-(2-(5-(4-cyclopropyl-2-fluorophenyl)-2-methyl-7,8-dihydro-[1,3,4]thiadiazolo[2′,3′:2,3]imidazo[4,5-c]pyridin-6(5H)-yl)-2-oxoethoxy)picolinate]",8
9,"Cc1nn2c3c(nc2s1)CCN(C(=O)COc1ccc(C(=O)N(C)C)nc1Cl)C3c1ccc(C2CC2)cc1F (stereo not shown) [Example 1.6.25, 6-chloro-5-(2-(5-(4-cyclopropyl-2-fluorophenyl)-2-methyl-7,8-dihydro-[1,3,4]thiadiazolo[2′,3′:2,3]imidazo[4,5-c]pyridin-6(5H)-yl)-2-oxoethoxy)-N,N-dimethylpicolinamide]",4
10,"Cc1nn2c3c(nc2s1)CCN(C(=O)COc1ccc(NS(C)(=O)=O)nc1Cl)C3c1ncc(Cl)cc1F (stereo not shown) [Example 1.33.6, N-(6-chloro-5-(2-(5-(5-chloro-3-fluoropyridin-2-yl)-2-methyl-7,8-dihydro-[1,3,4]thiadiazolo[2′,3′:2,3]imidazo[4,5-c]pyridin-6(5H)-yl)-2-oxoethoxy)pyridin-2-yl)methanesulfonamide]",6
11,"CCc1nc(N2CCCS2(=O)=O)ccc1OCC(=O)N1CCc2nc3sc(C(F)(F)F)nn3c2C1c1sc(C)nc1C (stereo not shown) [Example 5.4.1, 1-(5-(2,4-dimethylthiazol-5-yl)-2-(trifluoromethyl)-7,8-dihydro-[1,3,4]thiadiazolo[2′,3′:2,3]imidazo[4,5-c]pyridin-6(5H)-yl)-2-((6-(1,1-dioxidoisothiazolidin-2-yl)-2-ethylpyridin-3-yl)oxy)ethanone]",25
12,"COc1ccc(C2c3c(nc4sccn34)CCN2C(=O)COc2ccc3ccccc3c2)cc1OC (stereo not shown) [Example 6.1.1, 1-(5-(3,4-dimethoxyphenyl)-7,8-dihydrothiazolo-[2′,3′:2,3]imidazo[4,5-c]pyridin-6(5H)-yl)-2-(naphthalen-2-yloxy)ethanone]",4
13,"CNC(=O)c1ccc(C2c3c(nc4sc(C)nn34)CCN2C(=O)COc2ccc(N3CCOCC3)nc2Cl)o1 (stereo not shown) [Example 1.42.2, 5-(6-(2-((2-chloro-6-morpholinopyridin-3-yl)oxy)acetyl)-2-methyl-5,6,7,8-tetrahydro-[1,3,4]thiadiazolo[2′,3′:2,3]imidazo[4,5-c]pyridin-5-yl)-N-methylfuran-2-carboxamide]",11
14,"CCc1nc(N2CCCS2(=O)=O)ccc1OCC(=O)N1CCc2nc3sc(C(F)(F)F)nn3c2C1c1ncc(C)cc1F (stereo not shown) [Example 5.2.1, 2-((6-(1,1-dioxidoisothiazolidin-2-yl)-2-ethylpyridin-3-yl)oxy)-1-(5-(3-fluoro-5-methylpyridin-2-yl)-2-(trifluoromethyl)-7,8-dihydro-[1,3,4]thiadiazolo[2′,3′:2,3]imidazo[4,5-c]pyridin-6(5H)-yl)ethanone]",13
15,"CCc1nc(NS(C)(=O)=O)ccc1OCC(=O)N1CCc2nc3sc(C)nn3c2C1c1cc(F)c(C)cc1F (stereo not shown) [Example 1.74.1, N-(5-(2-(5-(2,5-difluoro-4-methylphenyl)-2-methyl-7,8-dihydro-[1,3,4]thiadiazolo[2′,3′:2,3]imidazo[4,5-c]pyridin-6(5H)-yl)-2-oxoethoxy)-6-ethylpyridin-2-yl)methanesulfonamide]",25
16,"Cc1nn2c3c(nc2s1)CCN(C(=O)COc1ccc(NS(C)(=O)=O)nc1Cl)C3c1sc(C(C)C)nc1C (stereo not shown) [Example 1.73.1, N-(6-chloro-5-(2-(5-(2-isopropyl-4-methylthiazol-5-yl)-2-methyl-7,8-dihydro-[1,3,4]thiadiazolo[2′,3′:2,3]imidazo[4,5-c]pyridin-6(5H)-yl)-2-oxoethoxy)pyridin-2-yl)methanesulfonamide]",60
17,"CCc1ncccc1OCC(=O)N1CCc2nc3sc(C)nn3c2C1c1ccc(C2CC2)cc1F (stereo not shown) [Example 1.6.9, 1-(5-(4-cyclopropyl-2-fluorophenyl)-2-methyl-7,8-dihydro-[1,3,4]thiadiazolo[2′,3′:2,3]imidazo[4,5-c]pyridin-6(5H)-yl)-2-((2-ethylpyridin-3-yl)oxy)ethanone]",457
18,"Cc1nn2c3c(nc2s1)CCN(C(=O)COc1ccc(C(F)(F)F)nc1Cl)C3c1ccc(C2CC2)cc1F (stereo not shown) [Example 1.6.24, 2-((2-chloro-6-(trifluoromethyl)pyridin-3-yl)oxy)-1-(5-(4-cyclopropyl-2-fluorophenyl)-2-methyl-7,8-dihydro-[1,3,4]thiadiazolo[2′,3′:2,3]imidazo[4,5-c]pyridin-6(5H)-yl)ethanone]",7
19,"CCc1nc(C)ccc1OCC(=O)N1CCc2nc3sccn3c2C1c1c(C)nn(C)c1C (stereo not shown) [Example 6.15.1, ((2-ethyl-6-methylpyridin-3-yl)oxy)-1-(5-(1,3,5-trimethyl-1H-pyrazol-4-yl)-7,8-dihydrothiazolo-[2′,3′:2,3]imidazo[4,5-c]pyridin-6(5H)-yl)ethanone]",149
20,"Cc1ccc(C2c3c(nc4sc(CF)nn34)CCN2C(=O)COc2ccc(NS(C)(=O)=O)nc2Cl)c(F)c1 (stereo not shown) [Example 7.3.1, N-(6-chloro-5-(2-(5-(2-fluoro-4-methylphenyl)-2-(fluoromethyl)-7,8-dihydro-[1,3,4]thiadiazolo[2′,3′:2,3]imidazo[4,5-c]pyridin-6(5H)-yl)-2-oxoethoxy)pyridin-2-yl)methanesulfonamide]",8
21,"Cc1nn2c3c(nc2s1)CCN(C(=O)COc1ccc(N2CCOCC2)nc1F)C3c1ncc(C2CC2)cc1F (stereo not shown) [Example 1.14.5, 1-(5-(5-cyclopropyl-3-fluoropyridin-2-yl)-2-methyl-7,8-dihydro-[1,3,4]thiadiazolo[2′,3′:2,3]imidazo[4,5-c]pyridine-6(5H)-yl)-2-((2-fluoro-6-morpholinopyridin-3-yl)oxy)ethanone]",9
22,"CS(=O)(=O)Nc1ccc(OCC(=O)N2CCc3nc4sc(C(F)F)nn4c3C2c2ccc(Cl)cc2F)c(Cl)n1 (stereo not shown) [Example 8.1.1, N-(6-chloro-5-(2-(5-(4-chloro-2-fluorophenyl)-2-(difluoromethyl)-7,8-dihydro-[1,3,4]thiadiazolo-[2′,3′:2,3]imidazo[4,5-c]pyridin-6(5H)-yl)-2-oxoethoxy)pyridin-2-yl)methanesulfonamide]",19
23,"Cc1nn2c3c(nc2s1)CCN(C(=O)COc1cccnc1C(F)(F)F)C3c1ccc(C2CC2)cc1F (stereo not shown) [Example 1.6.13, 1-(5-(4-cyclopropyl-2-fluorophenyl)-2-methyl-7,8-dihydro-[1,3,4]thiadiazolo[2′,3′:2,3]imidazo[4,5-c]pyridin-6(5H)-yl)-2-((2-(trifluoromethyl)pyridin-3-yl)oxy)ethanone]",4
